Results as given in patent US10722514B2 (FLX Bio, Inc., priority 2017, dated 2020).
Structures can show the parent of a compound that is named as a salt.

Target: T1, recombinant full-length USP7 (Homo sapiens, UniProt Q93009)
T1 construct: A 25 μl reaction volume containing recombinant full-length USP7 (62 pM)
Assay: USP7-mediated ubiquitin-rhodamine cleavage assay
Assay type: biochemical
Settings: recombinant full-length USP7 62 pM; ubiquitin-rhodamine 100 nM; 30-minute incubation with compound, 1 hour reaction at room temperature; read-out: Potency: USP7 IC50
In short: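 USP7 (62 pM) in 20 mM HEPES pH 7.3, 150 mM NaCl, 1 mM TCEP, 125 μg/ml BSA was preincubated with compound (1% DMSO) for 30 min at room temperature. Ubiquitin-rhodamine (100 nM final) was then added for 1 hour, the reaction stopped with acetic acid, and fluorescence read; IC50 from 4-parameter fit.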

T1 sequence (Q93009 whole entry): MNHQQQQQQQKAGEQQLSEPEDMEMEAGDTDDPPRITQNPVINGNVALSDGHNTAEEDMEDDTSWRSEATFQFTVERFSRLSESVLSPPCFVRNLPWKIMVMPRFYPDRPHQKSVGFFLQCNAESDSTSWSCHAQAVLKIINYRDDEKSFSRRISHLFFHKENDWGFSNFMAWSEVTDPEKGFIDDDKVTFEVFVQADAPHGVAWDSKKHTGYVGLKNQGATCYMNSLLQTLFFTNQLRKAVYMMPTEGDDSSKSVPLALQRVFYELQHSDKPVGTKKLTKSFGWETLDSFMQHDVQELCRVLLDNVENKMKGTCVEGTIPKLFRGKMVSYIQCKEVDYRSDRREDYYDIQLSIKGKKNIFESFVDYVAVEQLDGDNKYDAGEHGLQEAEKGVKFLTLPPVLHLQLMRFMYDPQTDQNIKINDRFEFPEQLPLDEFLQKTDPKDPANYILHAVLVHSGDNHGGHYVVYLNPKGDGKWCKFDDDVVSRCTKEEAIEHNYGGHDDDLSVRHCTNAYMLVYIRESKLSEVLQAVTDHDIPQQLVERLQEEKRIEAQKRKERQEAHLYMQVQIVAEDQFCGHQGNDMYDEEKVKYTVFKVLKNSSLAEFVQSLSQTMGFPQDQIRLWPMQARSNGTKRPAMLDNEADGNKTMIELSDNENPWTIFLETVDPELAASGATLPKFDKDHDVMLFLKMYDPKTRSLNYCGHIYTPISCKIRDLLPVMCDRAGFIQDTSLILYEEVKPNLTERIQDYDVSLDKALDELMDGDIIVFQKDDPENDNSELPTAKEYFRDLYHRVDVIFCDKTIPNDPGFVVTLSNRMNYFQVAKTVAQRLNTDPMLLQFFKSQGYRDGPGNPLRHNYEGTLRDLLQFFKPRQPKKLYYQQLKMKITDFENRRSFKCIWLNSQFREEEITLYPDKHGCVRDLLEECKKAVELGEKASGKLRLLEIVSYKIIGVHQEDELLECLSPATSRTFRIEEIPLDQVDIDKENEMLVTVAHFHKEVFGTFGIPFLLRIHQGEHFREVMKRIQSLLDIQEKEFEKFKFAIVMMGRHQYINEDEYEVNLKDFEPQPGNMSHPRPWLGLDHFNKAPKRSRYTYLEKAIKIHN

## Cc1cc(Cl)cc(-c2ccnc3cc(CN4C(=O)CCC4=O)sc23)c1O[C@@H]1CN(CC(C)(C)C)C[C@@H]1F [Example 336, 1-[[7-[5-chloro-2-[(3R,4S)-1-(2,2-dimethylpropyl)-4-fluoro-pyrrolidin-3-yl]oxy-3-methyl-phenyl]thieno[3,2-b]pyridin-2-yl]methyl]pyrrolidine-2,5-dione]
  IC50: < 1000 nM

## Cc1cc(Cl)cc(-c2ccnc3cc(Cn4c(=O)ccn(CC(F)(F)F)c4=O)sc23)c1O[C@@H]1CNCC[C@@H]1C [Example 337, 3-[[7-[5-chloro-3-methyl-2-[[(3S,4S)-4-methyl-3-piperidyl]oxy]phenyl]thieno[3,2-b]pyridin-2-yl]methyl]-1-(2,2,2-trifluoroethyl)pyrimidine-2,4-dione]
  IC50: < 1000 nM

## Cc1cc(Cl)cc(-c2ncnc3cc(CN4C(=O)CCC4=O)sc23)c1O[C@H]1CC[C@H](C)NC1 [Example 338, 1-[[4-[5-chloro-3-methyl-2-[[(3S,6S)-6-methyl-3-piperidyl]oxy]phenyl]thieno[3,2-d]pyrimidin-6-yl]methyl]pyrrolidine-2,5-dione dihydrochloride]
  IC50: < 1000 nM

## Cc1cc(Cl)cc(-c2ncnc3cc(CN4C(=O)C5C(C4=O)C5(C)C)sc23)c1O[C@H]1CC[C@H](C)NC1 (stereo partly drawn) [Example 339, 3-[[4-[5-chloro-3-methyl-2-[[(3S,6S)-6-methyl-3-piperidyl]oxy]phenyl]thieno[3,2-d]pyrimidin-6-yl]methyl]-6,6-dimethyl-3-azabicyclo[3.1.0]hexane-2,4-dione dihydrochloride]
  IC50: < 1000 nM

## Cc1cc(Cl)cc(-c2ccnc3cc(CN4C(=O)C5C(C4=O)C5(C)C)sc23)c1O[C@@H]1CNCC[C@@H]1C (stereo partly drawn) [Example 340, 3-[[7-[5-chloro-3-methyl-2-[[(3S,4S)-4-methyl-3-piperidyl]oxy]phenyl]thieno[3,2-b]pyridin-2-yl]methyl]-6,6-dimethyl-3-azabicyclo[3.1.0]hexane-2,4-dione]
  IC50: < 1000 nM

## Cc1cc(Cl)cc(-c2ccnc3cc(CN4C(=O)C5C(C4=O)C5(C)C)sc23)c1O[C@@H]1CNCC[C@H]1C (stereo partly drawn) [Example 341, 3-[[7-[5-chloro-3-methyl-2-[[(3S,4R)-4-methyl-3-piperidyl]oxy]phenyl]thieno[3,2-b]pyridin-2-yl]methyl]-6,6-dimethyl-3-azabicyclo[3.1.0]hexane-2,4-dione]
  IC50: < 1000 nM

## Cc1cc(Cl)cc(-c2ccnc3cc(Cn4c(=O)ccn(CC(F)(F)F)c4=O)sc23)c1O[C@@H]1CNCC[C@H]1C [Example 342, 3-[[7-[5-chloro-3-methyl-2-[[(3S,4R)-4-methyl-3-piperidyl]oxy]phenyl]thieno[3,2-b]pyridin-2-yl]methyl]-1-(2,2,2-trifluoroethyl)pyrimidine-2,4-dione]
  IC50: < 1000 nM

## Cc1cc(Cl)cc(-c2ccnc3cc(CN4C(=O)CCC4=O)sc23)c1OC1CCNC1(C)C (stereo not shown) [Example 343, 1-[[7-[5-chloro-2-(2,2-dimethylpyrrolidin-3-yl)oxy-3-methyl-phenyl]thieno[3,2-b]pyridin-2-yl]methyl]pyrrolidine-2,5-dione]
  IC50: < 1000 nM

## Cc1cc(Cl)cc(-c2ccnc3cc(Cn4c(=O)ccn(CC(F)(F)F)c4=O)sc23)c1OC1CCNC1(C)C (stereo not shown) [Example 344, 3-[[7-[5-chloro-2-(2,2-dimethylpyrrolidin-3-yl)oxy-3-methyl-phenyl]thieno[3,2-b]pyridin-2-yl]methyl]-1-(2,2,2-trifluoroethyl)pyrimidine-2,4-dione]
  IC50: < 1000 nM

## Cc1cc(Cl)cc(-c2ccnc3cc(CN4C(=O)CCC4=O)sc23)c1OC1CNCC1(C)C (stereo not shown) [Example 345, 1-[[7-[5-chloro-2-(4,4-dimethylpyrrolidin-3-yl)oxy-3-methyl-phenyl]thieno[3,2-b]pyridin-2-yl]methyl]pyrrolidine-2,5-dione]
  IC50: < 1000 nM

## Cc1cc(Cl)cc(-c2ccnc3cc(Cn4c(=O)ccn(CC(F)(F)F)c4=O)sc23)c1OC1CNCC1(C)C (stereo not shown) [Example 346, 3-[[7-[5-chloro-2-(4,4-dimethylpyrrolidin-3-yl)oxy-3-methyl-phenyl]thieno[3,2-b]pyridin-2-yl]methyl]-1-(2,2,2-trifluoroethyl)pyrimidine-2,4-dione]
  IC50: < 1000 nM

## Cc1cc([N+](=O)[O-])cc(-c2ccnc3cc(Cn4c(=O)ccn(CC(F)(F)F)c4=O)sc23)c1OC1CCN(C(C)(C)C)CC1 [Example 347, 3-[[7-[2-[(1-tert-butyl-4-piperidyl)oxy]-3-methyl-5-nitro-phenyl]thieno[3,2-b]pyridin-2-yl]methyl]-1-(2,2,2-trifluoroethyl)pyrimidine-2,4-dione]
  IC50: < 1000 nM

## Cc1cc(Cl)cc(-c2ncnc3cc(CN4C(=O)C5C(C4=O)C5(C)C)sc23)c1O[C@@H]1CN(C)C[C@@H]1F (stereo partly drawn) [Example 348, 3-[[4-[5-chloro-2-[(3R,4S)-4-fluoro-1-methyl-pyrrolidin-3-yl]oxy-3-methyl-phenyl]thieno[3,2-d]pyrimidin-6-yl]methyl]-6,6-dimethyl-3-azabicyclo[3.1.0]hexane-2,4-dione dihydrochloride]
  IC50: < 1000 nM

## Cc1cc(Cl)cc(-c2ncnc3cc(CN4C(=O)C5C(C4=O)C5(C)C)sc23)c1O[C@@H]1CNC[C@@H]1C (stereo partly drawn) [Example 349, 3-[[4-[5-chloro-3-methyl-2-[(3S,4S)-4-methylpyrrolidin-3-yl]oxy-phenyl]thieno[3,2-d]pyrimidin-6-yl]methyl]-6,6-dimethyl-3-azabicyclo[3.1.0]hexane-2,4-dione]
  IC50: < 1000 nM

## Cc1cc(Cl)cc(-c2ncnc3cc(CN4C(=O)C5C(C4=O)C5(C)C)sc23)c1O[C@@H]1CNCC[C@@H]1C (stereo partly drawn) [Example 350, 3-[[4-[5-chloro-3-methyl-2-[[(3S,4S)-4-methyl-3-piperidyl]oxy]phenyl]thieno[3,2-d]pyrimidin-6-yl]methyl]-6,6-dimethyl-3-azabicyclo[3.1.0]hexane-2,4-dione]
  IC50: < 1000 nM

## Cc1cc(Cl)cc(-c2ncnc3cc(CN4C(=O)C5CC5C4=O)sc23)c1O[C@@H]1CNC[C@@H]1F (stereo partly drawn) [Example 351, 3-[[4-[5-chloro-2-[(3R,4S)-4-fluoropyrrolidin-3-yl]oxy-3-methyl-phenyl]thieno[3,2-d]pyrimidin-6-yl]methyl]-3-azabicyclo[3.1.0]hexane-2,4-dione dihydrochloride]
  IC50: < 1000 nM

## Cc1cc(Cl)cc(-c2ncnc3cc(CN4C(=O)C5C(C4=O)C5(C)C)sc23)c1O[C@@H]1CCNC[C@H]1F (stereo partly drawn) [Example 352, 3-[[4-[5-chloro-2-[[(3R,4R)-3-fluoro-4-piperidyl]oxy]-3-methyl-phenyl]thieno[3,2-d]pyrimidin-6-yl]methyl]-6,6-dimethyl-3-azabicyclo[3.1.0]hexane-2,4-dione; 2,2,2-trifluoroacetic acid]
  IC50: < 1000 nM

## Cc1cc(Cl)cc(-c2ncnc3cc(CN4C(=O)C5CC5C4=O)sc23)c1O[C@@H]1CN(C)C[C@@H]1F (stereo partly drawn) [Example 353, 3-[[4-[5-chloro-2-[(3R,4S)-4-fluoro-1-methyl-pyrrolidin-3-yl]oxy-3-methyl-phenyl]thieno[3,2-d]pyrimidin-6-yl]methyl]-3-azabicyclo[3.1.0]hexane-2,4-dione dihydrochloride]
  IC50: < 1000 nM

## Cc1cc(Cl)cc(-c2ncnc3cc(CN4C(=O)C5C(C4=O)C5(C)C)sc23)c1O[C@@H]1C[C@H]2CN[C@@H]1C2 (stereo partly drawn) [Example 354, 3-[[4-[2-[[(1S,4R,5R)-3-azabicyclo[2.2.1]heptan-5-yl]oxy]-5-chloro-3-methyl-phenyl]thieno[3,2-d]pyrimidin-6-yl]methyl]-6,6-dimethyl-3-azabicyclo[3.1.0]hexane-2,4-dione dihydrochloride]
  IC50: < 1000 nM

## Cc1cc(Cl)cc(-c2ccnc3cc(CN4C(=O)C5CCC5C4=O)sc23)c1O[C@@H]1CN(C(=O)OC(C)(C)C)C[C@@H]1F (stereo partly drawn) [Example 355, tert-butyl (3R,4S)-3-[4-chloro-2-[2-[(2,4-dioxo-3-azabicyclo[3.2.0]heptan-3-yl)methyl]thieno[3,2-b]pyridin-7-yl]-6-methyl-phenoxy]-4-fluoro-pyrrolidine-1-carboxylate; 2,2,2-trifluoroacetic acid]
  IC50: < 1000 nM

## CCN1C[C@H]2C[C@@H]1[C@H](Oc1c(C)cc(Cl)cc1-c1ncnc3cc(CN4C(=O)C5C(C4=O)C5(C)C)sc13)C2 (stereo partly drawn) [Example 356, 3-[[4-[5-chloro-2-[[(1S,4R,5R)-3-ethyl-3-azabicyclo[2.2.1]heptan-5-yl]oxy]-3-methyl-phenyl]thieno[3,2-d]pyrimidin-6-yl]methyl]-6,6-dimethyl-3-azabicyclo[3.1.0]hexane-2,4-dione dihydrochloride]
  IC50: < 1000 nM

## Cc1cc(Cl)cc(-c2ccnc3cc(CN4C(=O)C5C(C4=O)C5(C)C)sc23)c1OC1CC(N)C1 (stereo not shown) [Example 357, 3-[[7-[2-(3-aminocyclobutyoxy)-5-chloro-3-methyl-phenyl]thieno[3,2-b]pyridin-2-yl]methyl]-6,6-dimethyl-3-azabicyclo[3.1.0]hexane-2,4-dione; 2,2,2-trifluoroacetic acid]
  IC50: < 1000 nM

## Cc1cc(Cl)cc(-c2ncnc3cc(CN4C(=O)C5C(C4=O)C5(C)C)sc23)c1OC1CC(N)C1 (stereo not shown) [Example 358, 3-[[4-[2-(3-aminocyclobutoxy)-5-chloro-3-methyl-phenyl]thieno[3,2-d]pyrimidin-6-yl]methyl]-6,6-dimethyl-3-azabicyclo[3.1.0]hexane-2,4-dione; 2,2,2-trifluoroacetic acid]
  IC50: < 1000 nM

## Cc1cc(Cl)cc(-c2ncnc3cc(CN4C(=O)C5C(C4=O)C5(C)C)sc23)c1O[C@H]1CCCN[C@H]1C (stereo partly drawn) [Example 359, 3-[[4-[5-chloro-3-methyl-2-[[(2S,3S)-2-methyl-3-piperidyl]oxy]phenyl]thieno[3,2-d]pyrimidin-6-yl]methyl]-6,6-dimethyl-3-azabicyclo[3.1.0]hexane-2,4-dione]
  IC50: < 1000 nM

## Cc1cc(Cl)cc(-c2ncnc3cc(CN4C(=O)C5C(C4=O)C5(C)C)sc23)c1O[C@H]1CCCN[C@@H]1C (stereo partly drawn) [Example 360, 3-[[4-[5-chloro-3-methyl-2-[[(2R,3S)-2-methyl-3-piperidyl]oxy]phenyl]thieno[3,2-d]pyrimidin-6-yl]methyl]-6,6-dimethyl-3-azabicyclo[3.1.0]hexane-2,4-dione]
  IC50: < 1000 nM
